Series [1] deals with A. baumannii (clin. isol.). Nature of the series: microbe, parasite or virus in culture. The class given is cell-based, Acinetobacter baumannii.
Experimental: (§4) Prior to the “checkerboard” synergy test the minimal inhibitory concentrations (MIC) of individual substances were determined using broth microdilution assay. Testing was performed in 60-well polystyrene Terasaki microplates with V-shaped bottom generally according to the guidelines of the European Committee for Antimicrobial Susceptibility Testing with subtle modifications designed for AMP testing (Tossi et al., [1997]; Wiegand et al., [2008]). Cultivation of bacteria was carried out in 2.1% Müller-Hinton broth at 37°C with shaking. Two-fold serial dilutions of peptides, antibiotics and other antimicrobials were made with 10 mM sodium phosphate buffer, pH 7.4, containing 0.1% of BSA. The plates were preliminary incubated with 0.1% BSA for 1 h at 37°C to reduce a non-specific binding of peptides to the plates. After that BSA was removed, and serial dilutions were added into the plate wells in triplicates followed by the same volume of the suspension of bacterial cells in logarithmic phase of growth in concentration of 1 × 10^6 CFU/ml. After the 18 h overnight incubation at 37°C, the MIC value for each compound was determined as its lowest concentration completely inhibiting the visible growth of bacteria. The final results were calculated as median values based on 3–6 independent experiments.
The test system of another series is MRSA ATCC 33591. Nature of the series: microbe, parasite or virus in culture. The class given is cell-based, Staphylococcus aureus. Particulars: median of 3–6 experiments, square brackets = twice the maximal tested concentration.
In another series the test system is human erythrocytes. The method, then:
To obtain erythrocytes, heparinized blood was centrifuged for 10 min at 300 g and 4°C. The supernatant liquid was removed, 10 ml of cooled PBS containing 4 mM of EDTA (pH 7.4) was added to the precipitate, and the mixture was centrifuged for 10 min under the same conditions. Then, red blood cells were washed three more times with cooled PBS. The sedimented red blood cells were used for the hemolytic test.
(§1) Here, [MEC A] and [MEC B] are the minimum effective concentrations (MEC) of substances A and B, when they are used alone. […] [A] and [B] are respective concentrations of substances A and B in their combination, where the same statistically significant difference is detected. A non-parametric Mann-Whitney U-test (p < 0.05 or p < 0.01) was used for the mentioned statistical comparison.
(§2) We have chosen the same intervals as that of FICI to determine synergy, additivity, independent action, and antagonism based on the minimal FECI values. However, in case of cytotoxic or hemolytic effect we were interested mainly in testing the possibility of additive or synergistic interaction itself, and not in assessing the exact magnitude of such interaction. Thus, in contrast to the “checkerboard titration” method used for combined antimicrobial activity investigation, studying the combined cytotoxic effect, we considered only two combinations of concentrations for the substances A and B in the mixture: • (½ MEC A + ½ MEC B), which, if found effective, provides the FECI value of 1 (the threshold value for additivity); • (¼ MEC A + ¼ MEC B), which, if found effective, provides the FECI value of 0.5 (the threshold value for synergetic interaction).
(§3) When action on tumor cells was tested in combination with antitumor antibiotic the lower concentrations up to ( 1/16 MEC A + 1/16 MEC B) as in checkerboard titration were additionally examined to assess the magnitude of synergistic effect more precisely. The final conclusion was made based on the three independent experiments.
Two hundred eighty microliters of erythrocyte precipitate obtained as described in section Eukaryotic Cells was added into the sterile 15 ml tube and its volume was adjusted to 10 ml with cooled PBS. Using 0.5 ml plastic tubes, 3 μl of the tested compound serially diluted in PBS or of the combination of two compounds were mixed with the 27 μl of the prepared erythrocyte suspension for each sample. For positive control (100% lysis of erythrocytes) 3 μl of the detergent (10% Triton X-100 solution in PBS) were added to the 27 μl of the erythrocyte suspension, and for negative control (0% lysis of erythrocytes) 3 μl of the PBS were used instead of any cell-damaging compound. […] After incubation, the hemolysis process was stopped by the addition of 75 μl of cooled PBS. The samples were centrifuged at 5,000 g and 4°C for 4 min. The optical density of the supernatants was measured at a wavelength of 540 nm using SpectraMax 250 Spectrophotometer (Molecular Devices, USA). The experiments were repeated three times. In each experiment all the test or control samples were made in triplicates. The percentage of hemolysis of erythrocytes was assessed by the following formula:
where ODsample, OD0%lysis, and OD100%lysis are values of the OD at 540 nm for the test sample, negative (0% lysis) control, and positive (100% lysis) control, respectively. However, due to the design of the study of combined action, described above in Combined Hemolytic or Cytotoxic Action, the obtained ODsample and OD0%lysis values were rather used to determine MECs and FECI by the Mann-Whitney U-test (p < 0.05, n1, n2 = 3).

In series [2] the test system is Murine peritoneal macrophages. The experiment in a line: MTT-test. The procedure:
Before the cells extraction, mice were sacrificed by cervical dislocation in accordance with the supplement to the Directive 86/609/EEC and its update Directive 2010/63/EU addressing the recommendations for euthanasia of experimental animals (Close et al., [1996]). To obtain peritoneal macrophages, healthy mice were used. The abdominal cavity of each animal was washed with 3 ml of sterile PBS using a Pasteur pipette. The culture of EAC cells was kindly provided by Dr. E.P. Kiseleva (Immunology Department of the Institute of Experimental Medicine, Saint Petersburg, Russia). On the tenth day after the intraperitoneal tumor inoculation, 0.5–1.5 ml of ascitic fluid containing EAC cells was obtained from the abdominal cavity of the animals. Murine cells (normal or tumor) were washed twice with 10 ml of sterile PBS and resuspended in RPMI-1640 medium as described above for human neutrophils and PBMC.
We calculated Fractional Effective Concentration Index (FECI), which could be seen as a particular case of the interaction index (I) proposed by Berenbaum ([1977]) or of the similar combination index (CI) proposed by Chou and Talalay ([1983]), according to the equation below: […]
as §1, §2, §3
Standard MTT-test (Mosmann, [1983]) was used for the examination of the cytotoxic activity of antimicrobial compounds and their combinations toward varied eukaryotic cells. Briefly, cell suspensions in RPMI-1640 prepared as described in Eukaryotic Cells were dispensed into the 96-well microplates (2 × 10^5 cells/well). Then, serial dilutions of AMPs, or other antibiotic compounds, or their mixtures in RPMI-1640 were added. In positive controls (100% cell survival) the according volume of RPMI-1640 without test substances was added instead. The final volume in each well was 100 μl. Negative controls (0% cell survival) were made with 100 μl of the sterile RPMI-1640. The plates were incubated at 37°C under 5% CO2 for 24 h. Four hours before the end of incubation, 10 μl of metabolic marker MTT−3-(4,5-dimethylthiazol-2-yl)-2,5-diphenyltetrazolium bromide (5 mg/ml, diluted in PBS) was added to each well. Incubation was stopped by adding 90 μl of isopropanol containing 0.04 M HCl. Content of the wells was thoroughly mixed, so that the formazan crystals, formed in case of the reduction of MTT in presence of actively metabolizing cells, were fully dissolved.
Background: Tetrazolium dyes change colour on reduction, which living cells bring about.

[3] abbreviates: Acinetobacter baumannii, A. baumannii (clin. isol.), susceptible, median of 3–6 experiments, read-out: MIC.
[4] abbreviates: Staphylococcus aureus, read-out: MIC.
The mark [5] stands for this setting: A. baumannii (clin. isol.), susceptible, median of 3–6 experiments, read-out: MIC.
Setting [6] is: Murine peritoneal macrophages, normal cells, MTT, 24 h.

In brackets after ≈: the same amount, converted by molar mass. Like-named read-outs stand apart in the source and are kept apart here. Where no end group is shown, it is not given here.

Experimental for MRSA ATCC 33591: as §4

As to `CNC(C)C1CCC(N)C(OC2C(N)CC(N)C(OC3OCC(C)(O)C(NC)C3O)C2O)O1` (stereo not drawn) [Gentamicin], the MIC in series [1] (setting [3]) was 0.06 µM (≈ 0.0287 µg/mL); in the series with MRSA ATCC 33591 (setting [4]), 0.16 µM (≈ 0.0764 µg/mL). In addition, the “MEC of hemolysis of human erythrocytes” value in the series on human erythrocytes (human, 30 min) is >50 [100] μM. In addition, in series [2] (mouse, 24 h), the “MEC of cytotoxic action” value was >50 [100] μM.

For the compound `Cc1onc(-c2ccccc2)c1C(=O)N[C@@H]1C(=O)N2[C@@H]1SC(C)(C)[C@@H]2C(=O)O` [Oxacillin], the figures for the MIC (in series [1] (setting [3]); with MRSA ATCC 33591 (setting [4])) were 25 µM (≈ 10 µg/mL) and 7.5 µM (≈ 3.01 µg/mL), respectively. The “hemolytic action (in words)” value in the series on human erythrocytes is “slight hemolityc action”. The “MEC of hemolysis of human erythrocytes” value in the series on human erythrocytes (human, 30 min) is 25 µM. The “MEC of cytotoxic action” value in series [2] (mouse, 24 h) was >50 [100] μM.

On to Polymyxin B, for which the MIC in series [1] (setting [5]) was 1.25 µM; with MRSA ATCC 33591 (read-out: MIC), 12.5 µM. In the series on human erythrocytes (30 min, 37°C, no blood serum), the “MEC of hemolysis of human erythrocytes” value is >50 [100] μM. Further, the “MEC of cytotoxic action” value in series [2] (setting [6]) stood at 50 µM.

On to “RFRLPFRRPPIRIHPPPFYPPFRRFL-NH2 (C-terminus assumed) [ChBac3.4]”, for which the “MEC of hemolysis of human erythrocytes” value in the series on human erythrocytes was >50 [100] μM. Further, the “MEC of cytotoxic action” value in series [2] was >20 [40] μM.

As for `CC[C@H](C)[C@H](NC(=O)[C@H](CCCCN)NC(=O)[C@H](CCC(=O)O)NC(=O)[C@H](CCCCN)NC(=O)[C@H](CO)NC(=O)[C@H](CCCCN)NC(=O)[C@H](CCCNC(=N)N)NC(=O)[C@H](Cc1ccccc1)NC(=O)[C@H](Cc1ccccc1)NC(=O)[C@H](CC(=O)O)NC(=O)CNC(=O)[C@H](CC(C)C)NC(=O)[C@@H](N)CC(C)C)C(=O)NCC(=O)N[C@@H](CCCCN)C(=O)N[C@@H](CCC(=O)O)C(=O)N[C@@H](Cc1ccccc1)C(=O)N[C@@H](CCCCN)C(=O)N[C@@H](CCCNC(=N)N)C(=O)N[C@H](C(=O)N[C@H](C(=O)N[C@@H](CCC(N)=O)C(=O)N[C@@H](CCCNC(=N)N)C(=O)N[C@H](C(=O)N[C@@H](CCCCN)C(=O)N[C@@H](CC(=O)O)C(=O)N[C@@H](Cc1ccccc1)C(=O)N[C@@H](CC(C)C)C(=O)N[C@@H](CCCNC(=N)N)C(=O)N[C@@H](CC(N)=O)C(=O)N[C@@H](CC(C)C)C(=O)N[C@H](C(=O)N1CCC[C@H]1C(=O)N[C@@H](CCCNC(=N)N)C(=O)N[C@H](C(=O)N[C@@H](CCC(=O)O)C(=O)N[C@@H](CO)C(=O)O)[C@@H](C)O)C(C)C)[C@@H](C)CC)C(C)C)[C@@H](C)CC` [LL-37], in the series on human erythrocytes (30 min, 37°C, no blood serum), the “MEC of hemolysis of human erythrocytes” value amounted to 5.0 µM. Besides, the “MEC of cytotoxic action” value in series [2] (setting [6]) was >20 [40] μM.

As for `CO[C@H]1/C=C/O[C@@]2(C)Oc3c(C)c(O)c4c(O)c(c(/C=N/N5CCN(C)CC5)c(O)c4c3C2=O)NC(=O)/C(C)=C\C=C\[C@H](C)[C@H](O)[C@@H](C)[C@@H](O)[C@@H](C)[C@H](OC(C)=O)[C@@H]1C` [Rifampicin], the values for the MIC (in series [1] (Acinetobacter baumannii); in the series with MRSA ATCC 33591 (setting [4])) were 0.125 µM (≈ 0.103 µg/mL) and 0.003 µM (≈ 0.00247 µg/mL), respectively. Also, the “hemolytic action (in words)” value with human erythrocytes is “slight hemolityc action”. For the same compound, the “MEC of hemolysis of human erythrocytes” value in the series on human erythrocytes (human, 30 min) was found to be 20 µM. Besides, in series [2] (mouse, 24 h), the “MEC of cytotoxic action” value is >20 [40] μM.

`CC1COc2c(N3CCN(C)CC3)c(F)cc3c(=O)c(C(=O)O)cn1c23` (stereo not drawn) [Ofloxacin]: the MIC was found to be 0.3 µM (≈ 0.108 µg/mL) in series [1] (setting [3]) and 0.625 µM (≈ 0.226 µg/mL) with MRSA ATCC 33591 (setting [4]). In addition, the “MEC of hemolysis of human erythrocytes” value in the series with human erythrocytes (human, 30 min) is >50 [100] μM. Also, the “MEC of cytotoxic action” value in series [2] (mouse, 24 h) was >50 [100] μM.

As for “Lysozyme: egg white lysozyme, antimicrobial protein, from BioChemica”, the results for the MIC (in series [1] (setting [5]); against MRSA ATCC 33591) were 1.2 µM and >250 [500] μM, respectively. Further, the “MEC of hemolysis of human erythrocytes” value with human erythrocytes is >50 [100] μM. Further, the “MEC of cytotoxic action” value in series [2] was >50 [100] μM.

The values above are taken from publication PMC6503114, “Application of Antimicrobial Peptides of the Innate Immune System in Combination With Conventional Antibiotics—A Novel Way to Combat Antibiotic Resistance?” (Frontiers in Cellular and Infection Microbiology, 2019).
